Several values for one entry are separate records, joined by “and”; a condition that tells them apart may be missing. Identical values can stand only once.
Key:
Alpha Polymerase = target: T1, Alpha Polymerase (Homo sapiens, UniProt P09884); test: Alpha polymerase inhibition (selectivity); type: biochemical
T1 sequence (P09884 1-1462): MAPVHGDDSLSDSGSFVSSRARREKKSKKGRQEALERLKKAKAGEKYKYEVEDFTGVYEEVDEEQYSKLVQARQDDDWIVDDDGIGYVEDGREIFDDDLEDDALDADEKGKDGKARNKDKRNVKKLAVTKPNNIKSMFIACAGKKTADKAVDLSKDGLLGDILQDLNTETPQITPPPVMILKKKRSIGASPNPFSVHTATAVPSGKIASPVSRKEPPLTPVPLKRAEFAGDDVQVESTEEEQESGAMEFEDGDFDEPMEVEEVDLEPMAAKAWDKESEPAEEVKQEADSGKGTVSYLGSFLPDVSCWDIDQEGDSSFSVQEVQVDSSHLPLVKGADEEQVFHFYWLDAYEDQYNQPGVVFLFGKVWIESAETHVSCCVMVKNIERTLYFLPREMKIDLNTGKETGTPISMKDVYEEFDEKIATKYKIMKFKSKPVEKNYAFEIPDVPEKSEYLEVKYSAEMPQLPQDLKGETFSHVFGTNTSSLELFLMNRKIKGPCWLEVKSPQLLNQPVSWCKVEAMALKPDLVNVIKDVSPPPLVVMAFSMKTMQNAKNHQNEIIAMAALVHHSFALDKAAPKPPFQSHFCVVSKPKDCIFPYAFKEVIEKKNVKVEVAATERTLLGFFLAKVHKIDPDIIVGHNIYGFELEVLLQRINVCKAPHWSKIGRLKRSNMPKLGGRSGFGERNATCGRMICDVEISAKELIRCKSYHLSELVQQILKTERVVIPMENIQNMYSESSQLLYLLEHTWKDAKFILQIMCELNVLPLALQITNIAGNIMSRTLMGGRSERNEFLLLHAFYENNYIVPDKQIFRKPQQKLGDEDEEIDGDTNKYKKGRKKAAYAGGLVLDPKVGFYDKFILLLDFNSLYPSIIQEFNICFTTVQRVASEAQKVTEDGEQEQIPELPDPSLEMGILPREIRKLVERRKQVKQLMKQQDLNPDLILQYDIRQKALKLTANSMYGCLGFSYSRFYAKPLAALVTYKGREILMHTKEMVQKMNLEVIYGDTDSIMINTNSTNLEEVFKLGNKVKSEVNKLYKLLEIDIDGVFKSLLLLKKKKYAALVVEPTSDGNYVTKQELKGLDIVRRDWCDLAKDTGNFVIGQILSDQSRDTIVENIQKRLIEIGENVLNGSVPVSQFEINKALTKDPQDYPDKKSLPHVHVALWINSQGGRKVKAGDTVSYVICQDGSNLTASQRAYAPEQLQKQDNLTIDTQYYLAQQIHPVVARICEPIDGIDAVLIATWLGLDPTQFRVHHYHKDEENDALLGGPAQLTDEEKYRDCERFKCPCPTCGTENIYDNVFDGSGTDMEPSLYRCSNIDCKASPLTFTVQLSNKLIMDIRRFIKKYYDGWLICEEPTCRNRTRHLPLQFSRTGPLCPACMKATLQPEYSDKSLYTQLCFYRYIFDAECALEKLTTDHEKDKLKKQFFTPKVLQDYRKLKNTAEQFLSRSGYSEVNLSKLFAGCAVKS

HCMV polymerase = target: T2, HCMV polymerase (Human cytomegalovirus, UniProt P08546); test: HCMV polymerase assay (scintillation proximity assay), original and modified version; type: biochemical; conditions: SPA; several values per example = repeat determinations, assay version not given; read-out: CMV Polymerase IC50
T2 construct: made in house; host or cells: SF-9 insect cells infected with recombinant baculovirus
T2 sequence (P08546 whole entry): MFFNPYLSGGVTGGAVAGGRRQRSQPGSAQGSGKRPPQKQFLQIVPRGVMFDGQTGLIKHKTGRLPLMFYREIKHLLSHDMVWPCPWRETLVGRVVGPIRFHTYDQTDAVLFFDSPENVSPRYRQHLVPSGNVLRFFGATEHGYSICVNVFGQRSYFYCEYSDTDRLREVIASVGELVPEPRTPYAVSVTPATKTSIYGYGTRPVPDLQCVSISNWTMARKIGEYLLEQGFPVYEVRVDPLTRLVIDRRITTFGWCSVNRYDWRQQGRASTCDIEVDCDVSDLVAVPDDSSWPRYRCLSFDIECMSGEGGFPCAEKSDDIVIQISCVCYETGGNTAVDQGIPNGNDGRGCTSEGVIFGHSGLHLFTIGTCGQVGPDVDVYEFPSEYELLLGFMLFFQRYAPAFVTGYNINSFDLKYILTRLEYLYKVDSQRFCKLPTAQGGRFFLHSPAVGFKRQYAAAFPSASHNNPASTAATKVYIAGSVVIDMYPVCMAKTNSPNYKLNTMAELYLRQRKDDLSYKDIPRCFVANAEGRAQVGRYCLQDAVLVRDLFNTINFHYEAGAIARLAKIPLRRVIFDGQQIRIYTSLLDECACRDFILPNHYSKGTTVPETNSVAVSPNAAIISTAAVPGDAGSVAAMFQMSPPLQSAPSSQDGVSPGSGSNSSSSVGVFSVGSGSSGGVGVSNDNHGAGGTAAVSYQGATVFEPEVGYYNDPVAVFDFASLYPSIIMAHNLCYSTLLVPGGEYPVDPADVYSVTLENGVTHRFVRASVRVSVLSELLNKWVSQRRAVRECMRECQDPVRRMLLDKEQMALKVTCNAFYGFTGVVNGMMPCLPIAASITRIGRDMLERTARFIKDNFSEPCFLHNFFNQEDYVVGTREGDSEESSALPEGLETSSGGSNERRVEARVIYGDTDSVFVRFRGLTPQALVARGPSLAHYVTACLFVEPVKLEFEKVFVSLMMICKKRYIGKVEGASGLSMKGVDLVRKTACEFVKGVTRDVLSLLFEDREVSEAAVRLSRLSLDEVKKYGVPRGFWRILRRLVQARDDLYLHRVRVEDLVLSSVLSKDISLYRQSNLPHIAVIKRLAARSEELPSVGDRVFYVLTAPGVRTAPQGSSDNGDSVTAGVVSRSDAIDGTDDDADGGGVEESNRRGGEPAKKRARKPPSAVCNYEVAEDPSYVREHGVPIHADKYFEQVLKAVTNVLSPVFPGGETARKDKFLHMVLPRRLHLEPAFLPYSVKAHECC
Procedure: The HCMV polymerase assay is performed using a scintillation proximity assay (SPA) as described in several references, such as N.D. Cook, et al., Pharmaceutical Manufacturing International, pages 49-53 (1992); K. Takeuchi, Laboratory Practice, September issue (1992); U.S. Pat. No. 4,568,649 (1986); which are incorporated by reference herein. Reactions are performed in 96-well plates. The assay is conducted in 100 μl volume with 5.4 mM HEPES (pH 7.5), 11.7 MM KCl, 4.5 mM MgCl2, 0.36 mg/ml BSA, and 90 nM ^3H-dTTP. Assays are run with and without CHAPS, (3-[(3-Cholamidopropyl)-dimethylammoniol-1-propane-sulfonate) at a final concentration of 2 mM. HCMV polymerase is diluted in enzyme dilution buffer containing 50% glycerol, 250 mM NaCl, 10 mM HEPES (pH 7.5), 100 μg/ml BSA, and 0.01% sodium azide. The HCMV polymerase, which is expressed in recombinant baculovirus-infected SF-9 cells and purified according to literature procedures, is added at 10% (or 10 μl) of the final reaction volume, i.e., 100 μl. Compounds are diluted in 50% DMSO and 10 μl are added to each well. Control wells contain an equivalent concentration of DMSO. Unless noted otherwise, reactions are initiated via the addition of 6 nM biotinylated poly(dA)-oligo(dT) template/primer to reaction mixtures containing the enzyme, substrate, and compounds of interest. Plates are incubated in a 25° C. or 37° C. H2O bath and terminated via the addition of 40 μl/reaction of 0.5 M EDTA (pH 8) per well. Reactions are terminated within the time-frame during which substrate incorporation is linear and varied depending upon the enzyme and conditions used, i.e., 30 min. for HCMV polymerase. Ten (10) μl of streptavidin-SPA beads (20 mg/ml in PBS/10% glycerol) are added following termination of the reaction. Plates are incubated 10 min. at 37° C., then equilibrated to room temperature, and counted on a Packard Topcount. Linear regressions are performed and IC50's are calculated using computer software.
A modified version of the above HCMV polymerase assay is performed as described above, but with the following changes: Compounds are diluted in 100% DMSO until final dilution into assay buffer. In the previous assay, compounds are diluted in 50% DMSO. 4.5 mM dithiotherotol (DTT) is added to the polymerase buffer.

| IC50 (Alpha Polymerase) [µM] | IC50 (HCMV polymerase) | melting point [°C] | SMILES |
| --- | --- | --- | --- |
| > 5 | 8.6 nM and 7.8 nM and 7.2 nM |  | CN(Cc1cc2c3c(c1)c(=O)c(C(=O)NCc1ccc(Cl)cc1)cn3CC(=O)N2C)CC(O)c1cc2ccccc2o1 (racemic) [Example 3, rac 9-{([2-(1-benzofuran-2-yl)-2-hydroxyethyl](methyl)amino)methyl}-N-(4-chlorobenzyl)-1-methyl-2,7-dioxo-2,3-dihydro-1H,7H-pyrido[1,2,3-de]quinoxaline-6-carboxamide] |
| > 20 | 120 nM and 89 nM | 159 to 161 | Cc1ccc(C(O)CN(C)Cc2cc3c4c(c2)c(=O)c(C(=O)NCc2ccc(Cl)cc2)cn4CC(=O)N3C)o1 (racemic) [Example 6, rac N-(4-chlorobenzyl)-9-{([2-hydroxy-2-(5-methyl-2-furyl)ethyl](methyl)amino)methyl}-1-methyl-2,7-dioxo-2,3-dihydro-1H,7H-pyrido[1,2,3-de]quinoxaline-6-carboxamide] |
| > 20 | 110 nM and 86 nM | 147 to 149 | CN(Cc1cc2c3c(c1)c(=O)c(C(=O)NCc1ccc(Cl)cc1)cn3CC(=O)N2C)CC(O)c1csc2ccccc12 (racemic) [Example 15, rac 9-{([2-(1-benzothien-3-yl)-2-hydroxyethyl](methyl)amino)methyl}-N-(4-chlorobenzyl)-1-methyl-2,7-dioxo-2,3-dihydro-1H,7H-pyrido[1,2,3-de]quinoxaline-6-carboxamide] |
| ≥ 20 |  |  | CN(Cc1cc2c3c(c1)c(=O)c(C(=O)NCc1ccc(Cl)cc1)cn3CC(=O)N2C)C[C@@H](O)c1ccccc1 [Example 12, N-(4-chlorobenzyl)-9-{[[(2S)-2-hydroxy-2-phenylethyl](methyl)amino]methyl}-1-methyl-2,7-dioxo-2,3-dihydro-1H,7H-pyrido[1,2,3-de]quinoxaline-6-carboxamide] |

More lines, now with the values behind:

| SMILES | IC50 (Alpha Polymerase) [µM] | IC50 (HCMV polymerase) | melting point [°C] |
| --- | --- | --- | --- |
| CN(Cc1cc2c3c(c1)c(=O)c(C(=O)NCc1ccc(Cl)cc1)cn3CC(=O)N2C)CC(O)c1ccc(O)cc1 (racemic) [Example 2, rac N-(4-chlorobenzyl)-9-{([2-hydroxy-2-(4-hydroxyphenyl)ethyl](methyl)amino)methyl}-1-methyl-2,7-dioxo-2,3-dihydro-1H,7H-pyrido[1,2,3-de]quinoxaline-6-carboxamide] | > 5 | 70 nM and 93 nM | 145 to 148 |
| CN(Cc1cc2c3c(c1)c(=O)c(C(=O)NCc1ccc(F)cc1)cn3CC(=O)N2C)C[C@@H](O)c1nccs1 [Example 27, N-(4-fluorobenzyl)-9-{[[(2R)-2-hydroxy-2-(1,3-thiazol-2-yl)ethyl](methyl)amino]methyl}-1-methyl-2,7-dioxo-2,3-dihydro-1H,7H-pyrido[1,2,3-de]quinoxaline-6-carboxamide] |  | 2080 nM | 156 to 158 |
| CN(Cc1cc2c3c(c1)c(=O)c(C(=O)NCc1ccc(F)cc1)cn3CC(=O)N2C)C[C@@H](O)c1ccsc1 [Example 28, N-(4-fluorobenzyl)-9-{[[(2S)-2-hydroxy-2-thien-3-ylethyl](methyl)amino]methyl}-1-methyl-2,7-dioxo-2,3-dihydro-1H,7H-pyrido[1,2,3-de]quinoxaline-6-carboxamide] |  | 690 nM | 150 to 152 |
| CN(Cc1cc2c3c(c1)c(=O)c(C(=O)NCc1ccc(F)cc1)cn3CC(=O)N2C)C[C@@H](O)c1ccccc1 [Example 29, N-(4-fluorobenzyl)-9-{[[(2S)-2-hydroxy-2-phenylethyl](methyl)amino]methyl}-1-methyl-2,7-dioxo-2,3-dihydro-1H,7H-pyrido[1,2,3-de]quinoxaline-6-carboxamide] |  | 810 nM | 150 to 152 |
| CN(Cc1cc2c3c(c1)c(=O)c(C(=O)NCc1ccc(F)cc1)cn3CC(=O)N2C)C[C@@H](O)c1cnccn1 [Example 30, N-(4-fluorobenzyl)-9-{[[(2R)-2-hydroxy-2-pyrazin-2-ylethyl](methyl)amino]methyl}-1-methyl-2,7-dioxo-2,3-dihydro-1H,7H-pyrido[1,2,3-de]quinoxaline-6-carboxamide] |  | 1090 nM | 108 to 110 |
| CN(Cc1cc2c3c(c1)c(=O)c(C(=O)NCc1ccc(Cl)cc1)cn3CC(=O)N2CCO)C[C@@H](O)c1ccco1 [Example 31, N-(4-chlorobenzyl)-9-{([(2R)-2-(2-furyl)-2-hydroxyethyl](methyl)amino)methyl}-1-(2-hydroxyethyl)-2,7-dioxo-2,3-dihydro-1H,7H-pyrido[1,2,3-de]quinoxaline-6-carboxamide] |  | 2890 nM | 166 to 167 |
| CN(Cc1cc2c3c(c1)c(=O)c(C(=O)NCc1ccc(F)cc1)cn3CC(=O)N2C)C[C@@H](O)c1cccs1 [Example 32, N-(4-fluorobenzyl)-9-{[[(2R)-2-hydroxy-2-thien-2-ylethyl](methyl)amino]methyl}-1-methyl-2,7-dioxo-2,3-dihydro-1H,7H-pyrido[1,2,3-de]quinoxaline-6-carboxamide] |  | 580 nM | 113 to 115 |
| CN(Cc1cc2c3c(c1)c(=O)c(C(=O)NCc1ccc(F)cc1)cn3CC(=O)N2C)C[C@@H](O)c1cc2ccccc2o1 [Example 36, 9-{[[(2R)-2-(1-benzofuran-2-yl)-2-hydroxyethyl](methyl)amino]methyl}-N-(4-fluorobenzyl)-1-methyl-2,7-dioxo-2,3-dihydro-1H,7H-pyrido[1,2,3-de]quinoxaline-6-carboxamide] |  | < 30 nM | 94 to 96 |
| CN(Cc1cc2c3c(c1)c(=O)c(C(=O)NCc1ccc(F)cc1)cn3CC(=O)N2C)C[C@H](O)c1cc2ccccc2o1 [Example 37, 9-{[[(2S)-2-(1-benzofuran-2-yl)-2-hydroxyethyl](methyl)amino]methyl}-N-(4-fluorobenzyl)-1-methyl-2,7-dioxo-2,3-dihydro-1H,7H-pyrido[1,2,3-de]quinoxaline-6-carboxamide] |  | 1190 nM | 195 to 197 |

Source: patent US20030207877A1, “Pyridoquinoxaline antivirals” (priority 2001, published 2003)
